Test results published in US20100144674A1, “PYRIDAZINE DERIVATIVES” (SYNGENTA CROP PROTECTION, INC., priority 2006, published 2010).

Columns and labels:
Botrytis Cinerea = test: Botrytis cinerea / tomato / preventive; type: in vivo; conditions: 72 h, preventive spray, tomato plants cv. Roter Gnom, assessed 3 days after inoculation, read-out: inhibit fungal infestation
Procedure: (§1) Botrytis Cinerea/Tomato/Preventive (Action Against Botrytis on Tomato) 4 weeks old tomato plants cv. Roter Gnom are treated with the formulated test compound in a spray chamber. Two days after application tomato plants are inoculated by spraying a spore suspension on the test plants. After an incubation period of 3 days at 20° C. and 95% r. h. in a greenhouse the disease incidence is assessed.

Puccinia Recondita = test: Puccinia recondita / wheat / preventive (brown rust); type: in vivo; conditions: 264 h, preventive spray, wheat plants cv. Arina, assessed 11 days after inoculation, read-out: inhibits fungal infestation
Procedure: Puccinia Recondita/Wheat/Preventive (Action Against Brown Rust on Wheat) 1 week old wheat plants cv. Arina are treated with the formulated test compound in a spray chamber. One day after application wheat plants are inoculated by spraying a spore suspension ([…] uredospores/ml) on the test plants. After an incubation period of 1 day at 20° C. and 95% r. h. plants are kept for 10 days 20° C./18° C. (day/night) and 60% r.h. in a greenhouse. The disease incidence is assessed 11 days after inoculation.

[1] = tested on: Magnaporthe Grisea (Pyricularia Oryzae); test: whole plant or invertebrate; type: in vivo; conditions: 144 h, read-out: inhibit fungal infestation
[2] = tested on: Pyrenophora Teres (Helminthosporium Teres); test: Pyrenophora teres (Helminthosporium teres) / barley / preventive (net blotch); type: in vivo; conditions: 96 h, preventive spray, barley plants cv. Regina, assessed 4 days after inoculation, read-out: inhibit fungal infestation
Procedure: Pyrenophora Teres (Helminthosporium Teres)/Barley/Preventive (Action Against Net Blotch on Barley) 1-week-old barley plants cv. Regina are treated with the formulated test compound in a spray chamber. Two days after application barley plants are inoculated by spraying a spore suspension (2.6×10^4 conidia/ml) on the test plants. After an incubation period of 4 days at 20° C. and 95% r. h. the disease incidence is assessed.

Septoria Tritici = test: Septoria tritici / wheat / preventive (Septoria leaf spot); type: in vivo; conditions: Zymoseptoria tritici, preventive spray, wheat plants cv. Riband, assessed 16-18 days after inoculation, read-out: inhibits fungal infestation
Procedure: Septoria Tritici/Wheat/Preventive (Action Against Septoria Leaf Spot on Wheat) 2 weeks old wheat plants cv. Riband are treated with the formulated test compound in a spray chamber. One day after application wheat plants are inoculated by spraying a spore suspension (10^6 conidia/ml) on the test plants. After an incubation period of 1 day at 22° C./21° C. and 95% r. h. plants are kept at 22° C./21° C. and 70% r.h. in a greenhouse. The disease incidence is assessed 16-18 days after inoculation.

Alternaria Solani = test: Alternaria solani / tomato / preventive; type: in vivo; conditions: 96 h, preventive spray, tomato plants cv. Roter Gnom, assessed 4 days after inoculation, read-out: inhibit fungal infestation
Procedure: as §1, with “Alternaria Solani/Tomato/Preventive” for “Botrytis Cinerea/Tomato/Preventive”, “Alternaria” for “Botrytis”, “4” for “3”, “22° C./18°” for “20°”

Uncinula Necator = test: Uncinula necator / grape / preventive (powdery mildew); type: in vivo; conditions: Erysiphe necator, 168 h, preventive spray, grape seedlings cv. Gutedel, assessed 7 days after inoculation, read-out: inhibit fungal infestation
Procedure: Uncinula Necator/Grape/Preventive (Action Against Powdery Mildew on Grape) 5 weeks old grape seedlings cv. Gutedel are treated with the formulated test compound in a spray chamber. One day after application grape plants are inoculated by shaking plants infected with grape powdery mildew above the test plants. After an incubation period of 7 days at 24° C./22° C. and 70% r. h. under a light regime of 14/10 h (light/dark) the disease incidence is assessed.

For `Cc1nnc(F)c(-c2c(F)cc(F)cc2F)c1-c1ccc2ccccc2c1` [I.ae.197, 3-fluoro-6-methyl-5-naphthalen-2-yl-4-(2,4,6-trifluorophenyl)-pyridazine], which inhibition at 200 ppm (Botrytis Cinerea) is on record?
Its inhibition at 200 ppm is at least 80%.

What about the inhibition at 200 ppm (Puccinia Recondita) of the same compound?
Its inhibition at 200 ppm is at least 80%.

What about the inhibition at 200 ppm [1] of the same compound?
Its inhibition at 200 ppm is at least 80%.

And the inhibition at 200 ppm [2]?
Its inhibition at 200 ppm is at least 80%.

And the inhibition at 200 ppm (Septoria Tritici)?
The inhibition at 200 ppm was at least 80%.

What about the melting point of the same compound?
Its melting point is 108 to 110 °C.

For `Cc1nnc(Cl)c(-c2c(F)cc(F)cc2F)c1-c1ccc2ccccc2c1` [I.ae.198, 3-chloro-6-methyl-5-naphthalen-2-yl-4-(2,4,6-trifluorophenyl)-pyridazine], which inhibition at 200 ppm (Alternaria Solani) is on record?
Its inhibition at 200 ppm is at least 80%.

What about the inhibition at 200 ppm (Botrytis Cinerea) of the same compound?
Its inhibition at 200 ppm is at least 80%.

What about the inhibition at 200 ppm (Puccinia Recondita) of the same compound?
The inhibition at 200 ppm was at least 80%.

What about the inhibition at 200 ppm [1] of the same compound?
Its inhibition at 200 ppm is at least 80%.

And the inhibition at 200 ppm [2]?
The inhibition at 200 ppm was at least 80%.

What about the inhibition at 200 ppm (Septoria Tritici) of the same compound?
The inhibition at 200 ppm was at least 80%.

What about the inhibition at 200 ppm (Uncinula Necator) of the same compound?
Its inhibition at 200 ppm is at least 80%.

What about the melting point of the same compound?
The melting point was 86 to 89 °C.

For `COc1nnc(C)c(-c2ccc3ccccc3c2)c1-c1c(F)cc(F)cc1F` [I.ae.199, 3-methoxy-6-methyl-5-naphthalen-2-yl-4-(2,4,6-trifluorophenyl)-pyridazine], which inhibition at 200 ppm (Alternaria Solani) is on record?
Its inhibition at 200 ppm is at least 80%.

And the inhibition at 200 ppm (Botrytis Cinerea)?
Its inhibition at 200 ppm is at least 80%.

And the inhibition at 200 ppm [2]?
The inhibition at 200 ppm was at least 80%.

What about the inhibition at 200 ppm (Uncinula Necator) of the same compound?
Its inhibition at 200 ppm is at least 80%.

What about the melting point of the same compound?
The melting point was 138 to 140 °C.

Which inhibition at 200 ppm (Alternaria Solani) does the source give for `Cc1nnc(C)c(-c2c(F)cccc2Cl)c1-c1ccc2ccccc2c1` [I.ae.080, 4-(2-chloro-6-fluorophenyl)-3,6-dimethyl-5-naphthalen-2-yl-pyridazine] here?
Its inhibition at 200 ppm is at least 80%.

And the inhibition at 200 ppm [1]?
The inhibition at 200 ppm was at least 80%.

What about the inhibition at 200 ppm (Septoria Tritici) of the same compound?
Its inhibition at 200 ppm is at least 80%.

And the melting point?
The melting point was 120 to 123 °C.

Which inhibition at 200 ppm (Botrytis Cinerea) does the source give for `COc1nnc(C)c(-c2ccc3ccccc3c2)c1-c1c(F)cccc1Cl` [I.ae.079, 4-(2-chloro-6-fluorophenyl)-3-methoxy-6-methyl-5-naphthalen-2-yl-pyridazine] here?
Its inhibition at 200 ppm is at least 80%.

And the inhibition at 200 ppm [1]?
The inhibition at 200 ppm was at least 80%.

What about the inhibition at 200 ppm (Uncinula Necator) of the same compound?
Its inhibition at 200 ppm is at least 80%.

What about the melting point of the same compound?
The melting point was 182 to 184 °C.

Which melting point does the source give for `Cc1n[nH]c(=O)c(-c2c(F)cc(F)cc2F)c1-c1ccc2ccccc2c1` [I.ae.196, 6-methyl-5-naphthalen-2-yl-4-(2,4,6-trifluorophenyl)-2H-pyridazin-3-one] here?
The melting point was 266 to 268 °C.
